# Test results from article PMC11801715, “Activating PKC-ε induces HIV expression with improved tolerability” (PLOS Pathogens, 2025).
# Several values for one entry are separate records, joined by “and”; a condition that tells them apart may be missing. Identical values can stand only once. Like-named read-outs stand apart in the source and are kept apart here.
# Legend:
# [1] = test system: EGR1 and CD69 mRNA in whole blood; assay: EGR1 and CD69 mRNA levels in rat blood (QuantiGene); type: in vivo
# Procedure: EGR1 and CD69 mRNA expression levels were measured in whole blood, processed using Affymetrix QuantiGene Sample Processing Kit (Thermo Fisher Scientific, catalog QS0111). Quantigene multiplex analysis was performed on 1:3 diluted blood using probes specific for rat EGR1 (Thermo Fisher Scientific, catalog nm_012551) and CD69 (catalog nm_134327), as per the kit’s instructions (Thermo Fisher Scientific, catalog QP-1014) and normalized to PPIB (catalog nm_022536) and β-actin (catalog nm_031144).
# Plasma PK in rats = type: in vivo, rat; conditions: slow IV infusion
# Procedure: Wild-type male Sprague Dawley (Hsd: Sprague Dawley SD) rats (8–15 weeks old) were sourced from the Covance stock colony for conduct of in vivo studies at Covance Laboratories Inc. (Madison, Wisconsin, USA). Rats were administered a single dose of vehicle control (n = 3), or 0.1, 0.3, 1, or 3 mg/kg C-232A (n = 6), or 10 mg/kg C-233 by intravenous infusion over 30 minutes. Blood samples were collected through 24 hours postdose. Samples for PK measurement of C-232A concentration were processed to plasma and shipped to Gilead Sciences (Foster City, California, USA). Samples were analyzed at Covance Laboratories for hematology and clinical chemistry panels. At unscheduled necropsy (3 mg/kg C-232A), tissues were preserved in 10% neutral-buffered formalin, embedded in paraffin, mounted on slides, and stained with hematoxylin and eosin. Tissues were then evaluated independently (Experimental Pathology Laboratories, Inc).
# Rat and rhesus plasma samples (20 µL aliquot of each) were treated with 100 µL acetonitrile containing a generic internal small-molecule standard. […] The descriptive PK parameters were analyzed using noncompartmental analysis with Phoenix WinNonlin software (version 8.2, Certara USA, Inc.). The area under the plasma concentration–time curve (AUClast) values were calculated using the linear trapezoid method.
# PKC-θ = PKC-θ (Homo sapiens, UniProt Q04759); assay: PKC isoform translocation in A549-tGFP cells; type: cell-based; design: host or cells: A549; conditions: for EC50: A549-tGFP cells, 60 minutes; for ε selectivity, PKC-θ: EC50 of PKC-θ divided by EC50 of PKC-ε
# Procedure: (§1) A description of this effort is reported elsewhere.
# (§2) Cellular translocation of PKC isoforms upon activation was determined in 8 A549 cell lines, each expressing a single PKC isoform fused to tGFP (PhenoVista Biosciences). Cells were plated in 384-well plates (80 μL/well) at 10^5 cells/mL in RPMI with 10% FBS and rested overnight. PKC agonist(s) were serially diluted at 1:3 steps in DMSO and added to the cells. After 60 minutes in an incubator at 37 °C, 5% CO2, cells were stained with Hoechst-33342 and fixed with 2% paraformaldehyde for 30 minutes at 4 °C. Cells were then stained with wheat germ agglutinin conjugated to AlexaFluor647 (WGA-647) for 10 minutes at 4 °C, washed to remove excess dye and imaged with Cellomics Array Scan (Thermo Fisher) at room temperature (RT). Images were analyzed using Cellomics automated image analysis algorithm. Plasma membrane translocation was quantified using the ratio between the average fluorescence in the areas at the cell edge defined by WGA-647 and the cytoplasm region.
# PKC-δ = PKC-δ (Homo sapiens, UniProt Q05655); assay: PKC isoform translocation in A549-tGFP cells; type: cell-based; design: host or cells: A549; conditions: for EC50: A549-tGFP cells, 60 minutes, read-out: EC50 for PKC-δ translocation; for ε selectivity, PKC-δ: EC50 of PKC-δ divided by EC50 of PKC-ε
# Procedure: as §1, §2
# platelet-rich plasma = assay: Platelet aggregation assay (light transmittance aggregometry); type: cell-based, human
# Procedure: Given that C-232A induced DIC in rats and monkeys, we tested whether C-232A could directly induce platelet activation and downstream aggregation. […] Adenosine diphosphate, a known platelet agonist, was used as a positive control (S7A Fig).
# Aggregation of platelets was assessed using light transmittance aggregometry using standard methods.
# (A) Assay principle for platelet aggregation assay.
# [2] = test system: latent HIV in total CD4+ T cells; assay: microbe, parasite or virus in culture; type: cell-based, HIV-1; conditions: for EC50: Human immunodeficiency virus 1, CD4+ T
# Procedure: Peripheral blood mononuclear cells and CD4^+ T cells used for evaluating PKC agonist and inhibitor molecules were isolated from leukopaks of selected participants as described previously. Isolated CD4^+ T cells (5×10^6 cells/well) were added to 24-well tissue culture plates in 2.5 mL of RPMI medium containing 100 nM each of elvitegravir and efavirenz. Cells were stimulated with DMSO (vehicle control) or the indicated concentrations of PKC agonist molecules. Cells were pretreated with PKC isoform inhibitors (Selleck Chemicals) for 1 hour before addition of PKC agonist at indicated concentrations and maintained at 37 °C, 5% CO2 for 3 days. Cell supernatants from each well were analyzed using the Cobas […] system for quantification of HIV-1 RNA using the HIV-1 test v2.0 kit (Roche Diagnostics).
# PBMCs = assay: Cytokine induction in vitro in PBMC culture supernatants; type: cell-based, human; conditions: 24 hours
# Procedure: Culture supernatants were analyzed for induction of several cytokines as shown in S3 Table, using a 10-plex MSD (Meso Scale Discovery) assay following manufacturer’s instructions. MSD Workbench 4.0 software was used for data analysis and 4-parameter logistic curve fit model was utilized to determine values of experimental samples from standard curves. Values for each cytokine (pg/mL) for a given concentration was calculated as the geometric mean of all triplicate values combined from all 5 donors.
# CD69 on CD4+ T cells = assay: CD4+ T-cell activation flow cytometry (CD69); type: cell-based; conditions: Homo sapiens; CD4+ T cells from ART-suppressed people with HIV; read-out: EC50, activation of CD69 expression
# Procedure: Sixteen hours post treatment with PKC agonists, cellular activation of 100,000 CD4^+ T cells, taken from the above ex vivo HIV activation cultures, was assessed using flow cytometry. Cell surface expression of CD69 was measured on CD4^+ T cells using anti-human CD3 (UCHT1), CD4 (SK3) and CD69 (FN50) antibodies and standard flow staining methods. Stained cells were acquired on the Becton Dickinson (BD) LSR Fortessa II flow cytometer and results were analyzed using FlowJo software.
# Chain of PKC-δ (Q05655 whole entry, canonical isoform): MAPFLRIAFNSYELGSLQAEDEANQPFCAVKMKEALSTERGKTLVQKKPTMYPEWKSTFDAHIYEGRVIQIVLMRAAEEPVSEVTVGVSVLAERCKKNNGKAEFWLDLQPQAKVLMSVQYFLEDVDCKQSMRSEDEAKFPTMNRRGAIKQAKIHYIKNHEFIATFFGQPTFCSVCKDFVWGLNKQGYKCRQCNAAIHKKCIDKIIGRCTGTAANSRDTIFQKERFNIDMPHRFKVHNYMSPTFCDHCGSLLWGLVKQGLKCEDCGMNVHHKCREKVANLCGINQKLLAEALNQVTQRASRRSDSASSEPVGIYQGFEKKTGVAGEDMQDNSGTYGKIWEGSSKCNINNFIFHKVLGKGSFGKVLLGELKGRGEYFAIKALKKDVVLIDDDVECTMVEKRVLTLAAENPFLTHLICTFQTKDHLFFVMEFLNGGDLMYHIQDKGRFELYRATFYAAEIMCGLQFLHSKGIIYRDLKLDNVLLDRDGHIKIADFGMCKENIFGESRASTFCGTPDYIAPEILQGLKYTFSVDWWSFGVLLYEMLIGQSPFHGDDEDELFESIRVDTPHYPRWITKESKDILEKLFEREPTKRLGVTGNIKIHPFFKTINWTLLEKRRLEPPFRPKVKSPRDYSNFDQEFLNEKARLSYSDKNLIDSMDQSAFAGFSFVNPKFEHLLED
# Chain of PKC-θ (Q04759 whole entry, canonical isoform): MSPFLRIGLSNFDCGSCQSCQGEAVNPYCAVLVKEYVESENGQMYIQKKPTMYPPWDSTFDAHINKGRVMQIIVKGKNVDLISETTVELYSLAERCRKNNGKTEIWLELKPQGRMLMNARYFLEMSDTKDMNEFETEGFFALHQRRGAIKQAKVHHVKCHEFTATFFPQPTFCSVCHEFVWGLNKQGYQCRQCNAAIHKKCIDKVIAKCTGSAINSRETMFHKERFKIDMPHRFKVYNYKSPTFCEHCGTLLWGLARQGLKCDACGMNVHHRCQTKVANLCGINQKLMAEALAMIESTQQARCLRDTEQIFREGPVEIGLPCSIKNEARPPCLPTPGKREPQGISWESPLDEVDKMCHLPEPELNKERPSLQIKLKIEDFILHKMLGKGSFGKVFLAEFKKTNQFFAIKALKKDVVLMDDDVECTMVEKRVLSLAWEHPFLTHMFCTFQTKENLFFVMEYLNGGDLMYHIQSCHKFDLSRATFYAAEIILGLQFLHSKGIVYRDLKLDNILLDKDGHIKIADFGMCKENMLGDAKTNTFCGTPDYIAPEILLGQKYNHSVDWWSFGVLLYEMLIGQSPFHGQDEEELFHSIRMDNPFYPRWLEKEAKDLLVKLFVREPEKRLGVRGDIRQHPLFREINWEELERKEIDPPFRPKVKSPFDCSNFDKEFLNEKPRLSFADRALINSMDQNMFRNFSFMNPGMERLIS
SMILES,EC50 (PKC-θ),"ε selectivity, PKC-θ (PKC-θ)",EC50 (PKC-δ),"ε selectivity, PKC-δ (PKC-δ)",relative potency for platelet aggregation (platelet-rich plasma),GM-CSF in PBMC culture supernatant (PBMCs; 156 nM) [pg/mL],IFN-γ in PBMC culture supernatant (PBMCs; 156 nM) [pg/mL],IL-1b in PBMC culture supernatant (PBMCs; 156 nM) [pg/mL],IL-2 in PBMC culture supernatant (PBMCs; 156 nM) [pg/mL],IL-4 in PBMC culture supernatant (PBMCs; 156 nM) [pg/mL],IL-6 in PBMC culture supernatant (PBMCs; 156 nM) [pg/mL],IL-8 in PBMC culture supernatant (PBMCs; 156 nM),IL-10 in PBMC culture supernatant (PBMCs; 156 nM) [pg/mL],IL-12p70 in PBMC culture supernatant (PBMCs; 156 nM) [pg/mL],TNF-α in PBMC culture supernatant (PBMCs; 156 nM) [pg/mL],GM-CSF in PBMC culture supernatant (PBMCs; 625 nM) [pg/mL],IFN-γ in PBMC culture supernatant (PBMCs; 625 nM) [pg/mL],IL-1b in PBMC culture supernatant (PBMCs; 625 nM) [pg/mL],IL-2 in PBMC culture supernatant (PBMCs; 625 nM) [pg/mL],IL-4 in PBMC culture supernatant (PBMCs; 625 nM) [pg/mL],also measured
Cc1ccc(C#Cc2ccc(C(=O)OCC3(CO)Cc4c(-c5ccccc5)ccnc4O3)cc2)cc1 (stereo not shown) [C-233],1500 nM,6,47000 nM,196,less potent than C-232A and prostratin,14,215,42,10,0.3,40,"36,739 pg/mL",4,5,308,30,135,60,14,0.6,"EGR1 and CD69 mRNA induction versus C-232A (1 mg/kg) ([1]; 10 mg/kg): higher induction of EGR1 and CD69 mRNA levels; PK profile (Plasma PK in rats; 1, 3, and 10 mg/kg, n = 3 male rats/group): Dose-dependent increases in the PK profile; platelet aggregation at concentrations below 10 μM (platelet-rich plasma; 20-minute stimulation): little or no aggregation; HIV RNA Fold over DMSO Geo.mean ([2]; 1.1 μM (Fig 10C)): 9.2 fold and 9 fold; EC50 ([2]; 72 h, read-out: HIV RNA EC50): 296 nM; IL-6 in PBMC culture supernatant (PBMCs; 625 nM): 44 pg/mL; IL-8 in PBMC culture supernatant (PBMCs; 625 nM): 45,465 pg/mL; IL-10 in PBMC culture supernatant (PBMCs; 625 nM): 4 pg/mL; IL-12p70 in PBMC culture supernatant (PBMCs; 625 nM): 9 pg/mL; TNF-α in PBMC culture supernatant (PBMCs; 625 nM): 834 pg/mL; EC50 (CD69 on CD4+ T cells): 99 nM"
Cc1ccc(C#Cc2ccc3oc(CC(C)(C)C(=O)OCC4(CO)CC(=CCC(CC(C)C)CC(C)C)C(=O)O4)cc3c2)cc1 (stereo not shown) [C-232A],176 nM and 180 nM,3,714 nM and 710 nM,12,less potent than prostratin,40,202,72,14,0.4,84,"43,224 pg/mL",4.9,7,883,71,172,125,17,0.6,"EGR1 and CD69 transcription ([1]; 0.1-3 mg/kg): dose-dependent increases in EGR1 and CD69 transcription; PK plasma profile (Plasma PK in rats; 0.1, 0.3, 1, and 3 mg/kg): dose-dependent C-232A PK plasma profiles; platelet aggregation (platelet-rich plasma; dilution series, 20 minutes): stimulated platelet aggregation; EC50 ([2]; read-out: EC50, activation of HIV expression): 500 nM; IL-6 in PBMC culture supernatant (PBMCs; 625 nM): 100 pg/mL; IL-8 in PBMC culture supernatant (PBMCs; 625 nM): 45,964 pg/mL; IL-10 in PBMC culture supernatant (PBMCs; 625 nM): 3.6 pg/mL; IL-12p70 in PBMC culture supernatant (PBMCs; 625 nM): 9 pg/mL; TNF-α in PBMC culture supernatant (PBMCs; 625 nM): 1424 pg/mL; EC50 (CD69 on CD4+ T cells): 57 nM"
